Laboratory results: patent publication US5942489A, “HGH-RH(1-29)NH2 analogues having antagonistic activity” (The Administrators of the Tulane Educational Fund, priority 1996, dated 1999)
Where a SMILES comes first, the peptide text is derived from it. Bridges are numbered along the chain shown (N, C = ends). [ ]: non-standard residue; d: D form. The star is where a group is joined. Phe(4-Cl) = N[C@@H](Cc1ccc(Cl)cc1)C(=O)O; 2Nal = N[C@@H](Cc1ccc2ccccc2c1)C(=O)O; Agmatine = N=C(N)NCCCCN*; Nle = CCCC[C@H](N)C(=O)O; Orn = NCCC[C@H](N)C(=O)O; Abu = CC[C@H](N)C(=O)O; PhAc = O=C(Cc1ccccc1)*

Assays:
[1] = target: T1, rat pituitary GH-RH receptors (Rattus norvegicus, UniProt Q02644); experiment: GH-RH radioreceptor binding assay, competition with labelled [His1,Nle27]hGH-RH(1-32)NH2; conditions: rat anterior pituitary membrane homogenates; read-out: Ki values, K
T1 construct: from tissue; host or cells: anterior pituitary of male Sprague-Dawley rats, crude membranes
T1 sequence (Q02644 23-464): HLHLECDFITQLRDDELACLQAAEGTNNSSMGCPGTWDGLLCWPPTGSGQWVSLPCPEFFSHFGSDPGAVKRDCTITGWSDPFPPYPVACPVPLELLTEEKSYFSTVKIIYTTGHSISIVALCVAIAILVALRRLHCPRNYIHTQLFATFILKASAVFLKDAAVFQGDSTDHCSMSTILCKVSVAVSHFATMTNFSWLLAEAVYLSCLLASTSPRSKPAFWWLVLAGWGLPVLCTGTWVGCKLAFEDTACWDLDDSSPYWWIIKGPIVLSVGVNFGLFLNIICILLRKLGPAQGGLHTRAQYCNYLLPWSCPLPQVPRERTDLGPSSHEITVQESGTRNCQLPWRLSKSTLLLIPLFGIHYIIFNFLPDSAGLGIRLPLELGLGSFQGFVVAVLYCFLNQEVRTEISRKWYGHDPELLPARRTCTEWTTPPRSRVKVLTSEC
Procedure: GH-RH Binding Assay. A sensitive radioreceptor binding assay was developed to determine the binding characteristics of the antagonists of GH-RH (G. Halmos, A. V. Schally et al., Receptor 3, 87-97, 1993), hereby incorporated by reference. The assay is based on binding of labelled [His^1, Nle^27 ]hGH-RH(1-32)NH2 to rat anterior pituitary membrane homogenates. Iodinated derivatives of [His^1, Nle^27 ]hGH-RH(1-32)NH2 are prepared by the chloramine-T method (F. C. Greenwood et al., Biochemistry 89:114-123, 1963), hereby incorporated by reference. Pituitaries from male Sprague-Dawley rats (250-300 g) are used to prepare crude membranes. For saturation binding analyses, membrane homogenates are incubated with at least 6 concentrations of [His^1,125I-Tyr^10,Nle^27 ]hGH-RH(1-32)NH2, ranging from 0.005 to 0.35 nM in the presence or absence of excess unlabelled peptide (1 μM).
The pellet is counted for radioactivity in a γ-counter. The affinities of the antagonist peptides tested to rat pituitary GH-RH receptors are determined in competitive binding experiments. The final binding affinities are estimated by Ki (dissociation constant of the inhibitor-receptor complex) and are determined by the Ligand PC computer program of Munson and Rodbard as modified by McPherson. Relative affinities compared to [Ac-Tyr^1, D-Arg^2 ]hGH-RH(1-29)NH2, the Standard antagonist, are calculated as the ratio of Ki of the tested GH-RH antagonist to the Ki of the Standard antagonist.

[2] = system: GH release induced by 1 nM hGH-RH(1-29)NH2 in superfused rat pituitary cells; experiment: Inhibition of hGH-RH(1-29)NH2-induced GH release in superfused rat pituitary system; assay type: cell-based; conditions: 30 nM peptide; for Inhibition of GH release (%) 0 min: 0 min response; for Inhibition of GH release (%) 30 min: 30 min response; for Inhibition of GH release (%) 60 min: 60 min response; for Inhibition of GH release (%) 90 min: 90 min response; for Inhibition of GH release (%) 120 min: 120 min response
Procedure: Superfused Rat Pituitary System. The analogues were tested in vitro in a test described earlier (S. Vigh and A. V. Schally, Peptides 5:241-[…], 1984) with modification (Z. Rekasi and A. V. Schally, P. N. A. S. 90:2146-2149, 1993).
Briefly, the cells are preincubated with peptides for 9 minutes (3 mL) at various concentrations. Immediately after the incubation, 1 nM hGH-RH(1-29)NH2 is administered for 3 minutes (1 mL) [0 minute response]. To check the duration of the antagonistic effect of the analogue, 1 nM hGH-RH(1-29)NH2 is applied 30, 60, 90, and 120 minutes later for 3 minutes [30, 60, 90, 120 min responses]. Net integral values of the GH responses are evaluated. GH responses are compared to and expressed as percent of the original GH response induced by 1 nM GH-RH(1-29)NH2. The effect of the new antagonists are compared to that of [Ac-Tyr^1,D-Arg^2 ]hGH-RH(1-29)NH2, the "Standard antagonist".
Growth Hormone Radio-immunoassay. Rat GH levels in aliquots of undiluted and diluted superfusion samples were measured by double-antibody radioimmunoassay using materials supplied by the National Hormone and Pituitary Program, Baltimore, Md. The results of RIA were analyzed with a computer program developed in our institute (V. Csernus and A. V. Schally, Harwood Academic (Greenstein, B. C. ed., London, pp. 71-109, 1991), hereby incorporated by reference. Inter-assay variation was less than 15% and intra-assay variation was less than 10%.

Compound	Ki [1] [nM]	Inhibition of GH release (%) 0 min [2] [%]	Inhibition of GH release (%) 30 min [2] [%]	Inhibition of GH release (%) 60 min [2] [%]	Inhibition of GH release (%) 90 min [2] [%]	Inhibition of GH release (%) 120 min [2] [%]
CCCC[C@H](NC(=O)[C@@H](NC(=O)[C@@H]1CCC(=O)NCCCC[C@H](NC(=O)[C@H](CCCNC(=N)N)NC(=O)[C@H](C)NC(=O)[C@H](CO)NC(=O)[C@H](CC(C)C)NC(=O)[C@H](CCC(N)=O)NC(=O)[C@H](C)NC(=O)[C@H](CC(C)C)NC(=O)[C@@H](NC(=O)[C@H]2CCCCNC(=O)CC[C@H](NC(=O)[C@@H](NC(=O)[C@H](Cc3ccc(Cl)cc3)NC(=O)[C@@H](NC(=O)[C@H](C)NC(=O)[C@H](CC(=O)O)NC(=O)[C@@H](CCCNC(=N)N)NC(=O)[C@H](Cc3ccc(O)cc3)NC(=O)Cc3ccccc3)[C@@H](C)CC)[C@@H](C)O)C(=O)N[C@@H](CO)C(=O)N[C@@H](Cc3ccc(O)cc3)C(=O)N[C@@H](CCCNC(=N)N)C(=O)N2)C(C)C)C(=O)N[C@@H](CC(C)C)C(=O)N[C@@H](CC(C)C)C(=O)N[C@@H](CCC(N)=O)C(=O)N1)[C@@H](C)CC)C(=O)N[C@@H](CO)C(=O)N[C@@H](CCCNC(=N)N)C(N)=O [Peptide 23, cyclo^8,12; 21,25 [[PhAc^0,D-Arg^2,Phe(pCl)^6,Glu^8,25,D-Lys^12,Ala^15,Nle^27]hGH-RH(1-29)-NH2] (PhAc-Y[dR]DAI[Phe(4-Cl)]TESYR[dK]VLAQLSARKLLQEI[Nle]SR-NH2; lactam 8-12, 21-25)	0.456	–	–	–	–	–
[PhAc^0,Tyr(Me),D-Arg^2,Phe(pCl)^6,Ala^15,Nle^27 ]hGH-RH(1-29)-NH2 [Peptide 10]	–	84.8	35.2	38.2	29.8	33.8
CCCC[C@H](NC(=O)[C@@H](NC(=O)[C@H](CC(=O)O)NC(=O)[C@H](CCC(N)=O)NC(=O)[C@H](CC(C)C)NC(=O)[C@H](CC(C)C)NC(=O)[C@@H]1CCCCNC(=O)CC[C@H](NC(=O)[C@H](CCC(N)=O)NC(=O)[C@H](C)NC(=O)[C@H](CC(C)C)NC(=O)[C@@H](NC(=O)[C@H](CCCCN)NC(=O)[C@H](CCCNC(=N)N)NC(=O)[C@H](Cc2ccc(O)cc2)NC(=O)[C@H](CO)NC(=O)[C@H](CO)NC(=O)[C@@H](NC(=O)[C@H](Cc2ccc(Cl)cc2)NC(=O)[C@@H](NC(=O)[C@H](C)NC(=O)[C@H](CC(=O)O)NC(=O)[C@@H](CCCNC(=N)N)NC(=O)[C@H](Cc2ccc(O)cc2)NC(=O)Cc2ccccc2)[C@@H](C)CC)[C@@H](C)O)C(C)C)C(=O)N[C@@H](CO)C(=O)N[C@@H](C)C(=O)N[C@@H](CCCNC(=N)N)C(=O)N1)[C@@H](C)CC)C(=O)N[C@@H](CO)C(=O)N[C@@H](CCCNC(=N)N)C(N)=O [Peptide 18, cyclo^17,21 [PhAc^0,D-Arg^2,Phe(pCl)^6,Ser^8,Ala^15,Glu^17,Nle^27]hGH-RH(1-29)NH2] (PhAc-Y[dR]DAI[Phe(4-Cl)]TSSYRKVLAQESARKLLQDI[Nle]SR-NH2; lactam 17-21)	0.159 ± 0.04	–	–	–	–	–
CCCC[C@H](NC(=O)[C@@H](NC(=O)[C@H](CC(=O)O)NC(=O)[C@H](CCC(N)=O)NC(=O)[C@H](CC(C)C)NC(=O)[C@H](CC(C)C)NC(=O)[C@H](CCCCN)NC(=O)[C@H](CCCNC(=N)N)NC(=O)[C@H](C)NC(=O)[C@H](CO)NC(=O)[C@H](CC(C)C)NC(=O)[C@H](CCC(N)=O)NC(=O)[C@H](CC)NC(=O)[C@H](CC(C)C)NC(=O)[C@@H](NC(=O)[C@H](CCCCN)NC(=O)[C@H](CCCNC(=N)N)NC(=O)[C@H](Cc1ccc(O)cc1)NC(=O)[C@H](CO)NC(=O)[C@H](CC(N)=O)NC(=O)[C@@H](NC(=O)[C@H](Cc1ccc(Cl)cc1)NC(=O)[C@@H](NC(=O)[C@H](C)NC(=O)[C@H](CC(=O)O)NC(=O)[C@@H](CCCNC(=N)N)NC(=O)[C@H](Cc1ccc(O)cc1)NC(=O)Cc1ccccc1)[C@@H](C)CC)[C@@H](C)O)C(C)C)[C@@H](C)CC)C(=O)N[C@@H](CO)C(=O)NCCCCNC(=N)N [Peptide 8, [PhAc^0,D-Arg^2,Phe(pCl)^6,Abu^15,Nle^27]hGH-RH(1-28)Agm] (PhAc-Y[dR]DAI[Phe(4-Cl)]TNSYRKVL[Abu]QLSARKLLQDI[Nle]S-Agmatine)	0.0159 ± 0.01	–	–	–	–	–
CCCC[C@H](NC(=O)[C@@H](NC(=O)[C@H](CC(=O)O)NC(=O)[C@H](CCC(N)=O)NC(=O)[C@H](CC(C)C)NC(=O)[C@H](CC(C)C)NC(=O)[C@H](CCCCN)NC(=O)[C@H](CCCNC(=N)N)NC(=O)[C@H](C)NC(=O)[C@H](CO)NC(=O)[C@H](CC(C)C)NC(=O)[C@H](CCC(N)=O)NC(=O)[C@H](C)NC(=O)[C@H](CC(C)C)NC(=O)[C@@H](NC(=O)[C@H](CCCCN)NC(=O)[C@H](CCCNC(=N)N)NC(=O)[C@H](Cc1ccc(O)cc1)NC(=O)[C@H](CO)NC(=O)[C@H](CC)NC(=O)[C@@H](NC(=O)[C@H](Cc1ccc2ccccc2c1)NC(=O)[C@@H](NC(=O)[C@H](C)NC(=O)[C@H](CC(=O)O)NC(=O)[C@@H](CCCNC(=N)N)NC(=O)[C@H](Cc1ccc(O)cc1)NC(=O)Cc1ccccc1)[C@@H](C)CC)[C@@H](C)O)C(C)C)[C@@H](C)CC)C(=O)N[C@@H](CC)C(=O)N[C@@H](CCCNC(=N)N)C(N)=O [Peptide 12, [PhAc^0,D-Arg^2,Nal^6,Abu^8,28,Ala^15,Nle^27]hGH-RH(1-29)NH2] (PhAc-Y[dR]DAI[2Nal]T[Abu]SYRKVLAQLSARKLLQDI[Nle][Abu]R-NH2)	–	87.0	61.0	37.0	34.0	41.0
CCCC[C@@H]1NC(=O)[C@H]([C@@H](C)CC)NC(=O)[C@H](NC(=O)[C@H](CCC(N)=O)NC(=O)[C@H](CC(C)C)NC(=O)[C@H](CC(C)C)NC(=O)[C@H](CCCCN)NC(=O)[C@H](CCCNC(=N)N)NC(=O)[C@H](C)NC(=O)[C@H](CO)NC(=O)[C@H](CC(C)C)NC(=O)[C@H](CCC(N)=O)NC(=O)[C@H](C)NC(=O)[C@H](CC(C)C)NC(=O)[C@@H](NC(=O)[C@H](CCCCN)NC(=O)[C@H](CCCNC(=N)N)NC(=O)[C@H](Cc2ccc(O)cc2)NC(=O)[C@H](CO)NC(=O)[C@H](CC)NC(=O)[C@@H](NC(=O)[C@H](Cc2ccc3ccccc3c2)NC(=O)[C@@H](NC(=O)[C@H](C)NC(=O)[C@H](CC(=O)O)NC(=O)[C@@H](CCCNC(=N)N)NC(=O)[C@H](Cc2ccc(O)cc2)NC(=O)Cc2ccccc2)[C@@H](C)CC)[C@@H](C)O)C(C)C)CC(=O)NCCC[C@@H](C(N)=O)NC(=O)[C@H](CO)NC1=O [Peptide 20, cyclo^25,29 [PhAc^0,D-Arg^2,Nal^6,Abu^8,Ala^15,D-Asp^25,Nle^27,Orn^29]hGH-RH(1-29)NH2] (PhAc-Y[dR]DAI[2Nal]T[Abu]SYRKVLAQLSARKLLQ[dD]I[Nle]S[Orn]-NH2; lactam 25-29)	–	11.0	0.0	0.0	13.0	–
